# In article PMC12846677 (Viruses, 2025):
# “And” between values parts separate entries of the source, which are not always exact repeats. Identical values can stand only once. Like-named read-outs stand apart in the source and are kept apart here.
# Columns and labels:
# [1] = test system: NL4-3; experiment: microbe, parasite or virus in culture; assay type: cell-based; conditions: Human immunodeficiency virus 1, NL43; NL4-3, p24
# [2] = test system: HIV-1DRACC017; experiment: microbe, parasite or virus in culture; assay type: cell-based; conditions: for EC50: Human immunodeficiency virus 1, HIV-1DRACC017, p24
# [3] = test system: HIV-1IIIB; experiment: microbe, parasite or virus in culture; conditions: Human immunodeficiency virus 1, C8166, HIV-1IIIB
# [4] = test system: HIV-1IIIB; experiment: qPCR determination of Late-RT, 2-LTR and Alu-LTR in infected C8166 cells; assay type: cell-based; conditions: for Late-RT level versus positive control (PC) group: C8166, HIV-1IIIB MOI 0.5, 100 nM ACC017, 4-8 h; for 2-LTR level (nuclear entry): C8166, HIV-1IIIB MOI 0.5, 100 nM ACC017, 8, 12, 24 h; for Alu-LTR level (integrated provirus): C8166, HIV-1IIIB MOI 0.5, 100 nM ACC017, 24 h, nested PCR
# [5] = test system: NL4-3IN-R263K; experiment: microbe, parasite or virus in culture; assay type: cell-based; conditions: Human immunodeficiency virus 1; read-out: EC50
# [6] = test system: HIV-1IIIB; experiment: Combined antiviral activity assay (p24 ELISA, CompuSyn); assay type: cell-based
# [7] = test system: HIV-1KIZ011 (CRF07_BC); experiment: microbe, parasite or virus in culture; conditions: Human immunodeficiency virus 1, PBMC
# [8] = test system: HIV-1WAN (CRF01_AE); experiment: microbe, parasite or virus in culture; conditions: Human immunodeficiency virus 1, PBMC
# [9] = test system: HIV-1A17; conditions: HIV-1A17, C8166, p24
# [10] = test system: HIV-1WAN (CRF01_AE); conditions: PBMC, p24
# [11] = test system: HIV-1IIIB
# [12] = test system: HIV-1A17; experiment: microbe, parasite or virus in culture; conditions: Human immunodeficiency virus 1, C8166
# [13] = Cytotoxicity MTT assay in MT4 cells; assay type: cell-based; conditions: human
# [14] = parameters: method as in CTR20240167; conditions: healthy adults, single-dose administration; ref CTR20240167; cited from earlier work
# [15] = test system: HIV-1TC-1 (CRF01_AE); conditions: HIV-1TC-1, PBMC, p24
# [16] = test system: clinical isolated strains; experiment: microbe, parasite or virus in culture; assay type: cell-based; conditions: Human immunodeficiency virus 1, read-out: EC50 range
# [17] = test system: HIV-1_4755-5; conditions: HIV-1_4755-5, C8166, p24
# [18] = test system: pNL4-3gp41(36G) V38A, N42T; conditions: C8166, p24
# [19] = test system: HIV-1KIZ011 (CRF07_BC); conditions: HIV-1KIZ011, PBMC, p24
# [20] = Cytotoxicity MTT assay in PBMCs; assay type: cell-based; conditions: human, peripheral blood mononuclear cells (PBMCs), PBMC
# [21] = test system: HIV-1IIIB; experiment: HIV-1IIIB-induced cytopathic effect (syncytia counting) in C8166 cells
# [22] = test system: drug-resistant strains; experiment: microbe, parasite or virus in culture; assay type: cell-based; conditions: Human immunodeficiency virus 1; panel of drug-resistant strains; read-out: EC50 range
# [23] = test system: HIV-1_4755-5; experiment: microbe, parasite or virus in culture; conditions: Human immunodeficiency virus 1, C8166
# [24] = Cytotoxicity MTT assay in C8166 cells; assay type: cell-based; conditions: human
# [25] = test system: HIV-1TC-1 (CRF01_AE); experiment: microbe, parasite or virus in culture; conditions: Human immunodeficiency virus 1, PBMC
# [26] = target: HIV-1 mutant N155H integrase (Human immunodeficiency virus type 1 group M subtype B, UniProt P04585, N1302H); experiment: biochemical; conditions: HIV-1N155H integrase, mean n = 4
# [27] = test system: HIV-1IIIB; experiment: microbe, parasite or virus in culture; assay type: cell-based; conditions: Human immunodeficiency virus 1, MT4, MTT
# [28] = p24 (Table 4, resistance study)
structure (smiles),measurement,setting,value
"O=C1Nc2ccc(Cl)cc2[C@@](C#CC2CC2)(C(F)(F)F)O1 [EFV, Efavirenz]",EC50,[1],1.51 ± 0.48 nM
same,EC50,[2],1.24 ± 0.22 nM
same,FC (Fold Change) EC50 (HIV-1DRACC017)/EC50 (HIV-1IIIB),[2]; p24,2.07
same,EC50,[3]; [28],0.6 ± 0.18 nM
same,Late-RT level versus positive control (PC) group,[4],significantly lower than that in the PC group
same,2-LTR level (nuclear entry),[4],barely detected
same,Alu-LTR level (integrated provirus),[4],almost undetectable
same,EC50,[5],1.62 ± 0.31 nM
"CC(C)OC(=O)[C@H](C)N[P@](=O)(CO[C@H](C)Cn1cnc2c(N)ncnc21)Oc1ccccc1 [TAF, Tenofovir alafenamide]",DRI Value ED75,[6]; combination ACC017 + FTC + TAF,4.78
same,DRI Value ED90,[6]; combination ACC017 + FTC + TAF,6.99
same,DRI Value ED95,[6]; combination ACC017 + FTC + TAF,8.96
same,DRI Value ED75,[6]; combination DTG + FTC + TAF,4.40
same,DRI Value ED90,[6]; combination DTG + FTC + TAF,6.33
same,DRI Value ED95,[6]; combination DTG + FTC + TAF,8.18
C[C@H]1N2C(=O)c3c(O)c(=O)c(C(=O)NCc4ccc(F)cc4F)cn3C[C@@H]2OCC12CC2 [ACC017],EC50,[1],1.7 ± 0.47 nM
same,EC50,[7],0.33 ± 0.06 nM
same,EC50,[8],1.78 ± 0.29 nM
same,SI (CC50/EC50),[9],2393.65
same,EC50,[2],> 5000 nM
same,SI (CC50/EC50),[10],8561.80
same,EC50,"[3]; C8166, p24 (Table 1)",0.59 ± 0.09 nM
same,EC50,"[3]; C8166, p24, 20% human serum",8.28 ± 2.02 nM
same,EC50,[3]; [28],1.25 ± 0.48 nM
same,SI (CC50/EC50),"[11]; C8166, p24","34,525.42"
same,Fold increase of EC50 in the presence of 20% human serum,"[11]; C8166, p24, with vs without 20% human serum",14.03 fold
same,EC50,[12],8.51 ± 0.25 nM
same,CC50 at 3 d,[13],24800 ± 80 nM
same,Safety and tolerability,[14],favorable safety and tolerability profile
same,SI (CC50/EC50),[15],"138,545.45"
same,EC50,[16],0.11 to 1.78 nM
same,Late-RT level versus positive control (PC) group,[4],no significant difference compared with the PC group
same,2-LTR level (nuclear entry),[4],unable to block the nuclear entry process
same,Alu-LTR level (integrated provirus),[4],significantly reduced
same,SI (CC50/EC50),[17],2233.55
same,EC50,[5],28.1 ± 4.22 nM
same,EC50,[18],0.34 ± 0.09 nM
same,SI (CC50/EC50),[18],"59,911.76"
same,SI (CC50/EC50),[19],"46,181.82"
same,CC50 at 7 d,[20],15200 nM
same,SI (CC50/EC50),"[21]; HIV-1IIIB, C8166, syncytia","34,525.42"
same,EC50,"[21]; Human immunodeficiency virus 1, C8166",0.59 ± 0.09 nM
same,EC50,[22],0.34 to 9.12 nM
same,DRI Value ED75,[6]; combination ACC017 + 3TC,5.25
same,DRI Value ED90,[6]; combination ACC017 + 3TC,9.07
same,DRI Value ED95,[6]; combination ACC017 + 3TC,13.15
same,DRI Value ED75,[6]; combination ACC017 + ACC007,4.07
same,DRI Value ED90,[6]; combination ACC017 + ACC007,6.48
same,DRI Value ED95,[6]; combination ACC017 + ACC007,8.97
same,DRI Value ED75,[6]; combination ACC017 + ACC017,1.77 and 3.46
same,DRI Value ED90,[6]; combination ACC017 + ACC017,2.06 and 2.77
same,DRI Value ED95,[6]; combination ACC017 + ACC017,2.32 and 2.42
same,DRI Value ED75,[6]; combination ACC017 + DTG,2.89
same,DRI Value ED90,[6]; combination ACC017 + DTG,2.45
same,DRI Value ED95,[6]; combination ACC017 + DTG,2.27
same,DRI Value ED75,[6]; combination ACC017 + FTC + TAF,4.62
same,DRI Value ED90,[6]; combination ACC017 + FTC + TAF,6.79
same,DRI Value ED95,[6]; combination ACC017 + FTC + TAF,9.05
same,EC50,[23],9.12 ± 2.31 nM
same,CC50 at 3 d,[24],20370 ± 100 nM
same,EC50,[25],0.11 ± 0.06 nM
same,IC50,[26],9.91 nM
same,EC50,[27],0.05147 ± 2e-05 nM
"Nc1nc(=O)n([C@@H]2CS[C@H](CO)O2)cc1F [FTC, Emtricitabine]",DRI Value ED75,[6]; combination ACC017 + FTC + TAF,7.82
same,DRI Value ED90,[6]; combination ACC017 + FTC + TAF,12.57
same,DRI Value ED95,[6]; combination ACC017 + FTC + TAF,17.41
same,DRI Value ED75,[6]; combination DTG + FTC + TAF,7.15
same,DRI Value ED90,[6]; combination DTG + FTC + TAF,12.20
same,DRI Value ED95,[6]; combination DTG + FTC + TAF,17.77
